The text below walks through data of US20260166162A1, “CARBON CHAIN SUBSTANCE FOR REGULATING TRANSMEMBRANE TRANSPORT AND FLUIDITY OF CELL MEMBRANES, AND PREPARATION AND USE THEREOF” (priority 2022, published 2026).

Common to all, as to type: cell-based
For one assay, the system named is Hela cells. Put plainly: Cell membrane fluidity (Laurdan fluorescence recovery) in Hela cells.
In the next assay the test system is Epithelial cells. Put plainly: Interaction of GFP-labelled complexes with cell membrane of epithelial cells (Example II-52, Table II-30). The following applies: GFP-labelled complex, epithelial cells pretreated 4 hours, n=3. The method, then:
The fatty acids were combined with water-soluble small molecules to form a complex, which were labeled with GFP fluorescence to detect cell membrane fluorescence. […] After the cells were stably adhered, the water-soluble fatty acid complexes in the following table were added to the cell culture medium. […] The medium with the drug was pipetted and replaced with normal DMEM medium. […] The green fluorescence intensity was analyzed by imageJ (see Table II-30, n=3).

Assay [1] deals with SARS-CoV-2 pseudovirus (B.1.526.2).

Where two headings read alike, the source gives them in different places.

For `CCCCCCCCCCCCCCCCCC(=O)NCCCCC(N)C(=O)O` (stereo not drawn) [Lys-stearic acid], the “Fluorescence recovery rate %” value in the assay on Hela cells (2 nM, 20 s) is 64.38%; in the assay with Hela cells (2 nM, 40 s) it was 65.33%; in the assay on Hela cells (2 nM, 60 s), 66.78%; with Hela cells (2 nM, 80 s) it was 65.32%; in the assay with Hela cells (5 nM, 20 s) it was 63.98%; with Hela cells (5 nM, 40 s) it was 64.03%. For the same compound, the “Fluorescence recovery rate %” value in the assay with Hela cells (5 nM, 60 s) turned out to be 64.52%; in the assay with Hela cells (5 nM, 80 s), 64.77%; with Hela cells (10 nM, 20 s) it was 64.41%; in the assay on Hela cells (10 nM, 40 s), 64.81%; in the assay on Hela cells (10 nM, 60 s) it was 65.40%; in the assay with Hela cells (10 nM, 80 s), 65.86%. The “Fluorescence recovery rate %” value is listed as 65.08% in the assay on Hela cells (50 nM, 20 s); 65.47% in the assay with Hela cells (50 nM, 40 s); 65.55% with Hela cells (50 nM, 60 s); 66.26% in the assay on Hela cells (50 nM, 80 s); 65.84% in the assay with Hela cells (50 μM, 20 s); 71.51% in the assay with Hela cells (50 μM, 40 s). The “Fluorescence recovery rate %” value was found to be 75.97% in the assay with Hela cells (50 μM, 60 s); 80.33% in the assay with Hela cells (50 μM, 80 s); 64.77% with Hela cells (100 μM, 20 s); 70.54% in the assay with Hela cells (100 μM, 40 s); 73.46% with Hela cells (100 μM, 60 s); 78.44% with Hela cells (100 μM, 80 s). Besides, the Mean fluorescence intensity with Epithelial cells (0 Hours after medium replaced) worked out at 105.3 ± 5.2; in the assay with Epithelial cells (2 Hours after medium replaced) it was 103.4 ± 2.7; in the assay on Epithelial cells (4 Hours after medium replaced) it was 98.3 ± 2.5; in the assay with Epithelial cells (8 Hours after medium replaced), 56.5 ± 5.6; in the assay with Epithelial cells (12 Hours after medium replaced) it was 46.7 ± 8.5; with Epithelial cells (24 Hours after medium replaced) it was 39.0 ± 5.3.

Consider `CCCCCCCCCC(=O)OCC(N)C(=O)O` (stereo not drawn) [Ser-n-decanoic acid], for which the Mean fluorescence intensity in the assay on Epithelial cells (0 Hours after medium replaced) is reported as 115.4 ± 4.4; in the assay with Epithelial cells (2 Hours after medium replaced), 113.3 ± 6.4; in the assay with Epithelial cells (4 Hours after medium replaced) it was 108.3 ± 4.4; with Epithelial cells (8 Hours after medium replaced), 75.5 ± 2.7; in the assay on Epithelial cells (12 Hours after medium replaced), 56.4 ± 2.4; in the assay on Epithelial cells (24 Hours after medium replaced) it was 39.5 ± 5.7.

For `NC(COC(=O)CCCCCCCCCCCCCCCCC(=O)O)C(=O)O` (stereo not drawn) [Ser-octadecanedioic acid], the Mean fluorescence intensity turned out to be 136.2 ± 8.5 in the assay on Epithelial cells (0 Hours after medium replaced); 127.3 ± 1.6 with Epithelial cells (2 Hours after medium replaced); 102.3 ± 4.4 in the assay with Epithelial cells (4 Hours after medium replaced); 76.2 ± 4.6 with Epithelial cells (8 Hours after medium replaced); 53.9 ± 7.2 with Epithelial cells (12 Hours after medium replaced); 42.4 ± 5.5 with Epithelial cells (24 Hours after medium replaced).

On to `CCC/C=C/C(=O)OCC(N)C(=O)O` (stereo not drawn) [Ser-t-2-hexenoic acid], for which the Mean fluorescence intensity in the assay with Epithelial cells (0 Hours after medium replaced) worked out at 104.3 ± 5.2; in the assay on Epithelial cells (2 Hours after medium replaced), 101.3 ± 8.6; in the assay with Epithelial cells (4 Hours after medium replaced) it was 95.4 ± 4.5; in the assay on Epithelial cells (8 Hours after medium replaced) it was 39.9 ± 8.4; in the assay on Epithelial cells (12 Hours after medium replaced), 32.5 ± 3.6; in the assay on Epithelial cells (24 Hours after medium replaced) it was 29.8 ± 5.2.

For the compound `CCCCCCCCC=CCCCCCCCCCCCC(=O)OC(C)C(N)C(=O)O` (stereo not drawn) [Thr-erucic acid], the Mean fluorescence intensity in the assay on Epithelial cells (0 Hours after medium replaced) amounted to 137.4 ± 5.8; in the assay with Epithelial cells (2 Hours after medium replaced), 121.3 ± 5.5; in the assay on Epithelial cells (4 Hours after medium replaced) it was 105.2 ± 7.3; with Epithelial cells (8 Hours after medium replaced), 79.5 ± 4.8; with Epithelial cells (12 Hours after medium replaced) it was 48.3 ± 1.2; in the assay with Epithelial cells (24 Hours after medium replaced), 42.4 ± 4.6.

Regarding `CCCCCC=CCC=CCCCCCCCC(=O)OC(C)C(N)C(=O)O` (stereo not drawn) [Thr-linoleic acid], the Mean fluorescence intensity in the assay on Epithelial cells (0 Hours after medium replaced) came out at 127.9 ± 6.6; with Epithelial cells (2 Hours after medium replaced), 122.3 ± 4.7; with Epithelial cells (4 Hours after medium replaced) it was 102.0 ± 1.5; with Epithelial cells (8 Hours after medium replaced), 65.2 ± 5.6; in the assay on Epithelial cells (12 Hours after medium replaced), 45.0 ± 2.5; in the assay on Epithelial cells (24 Hours after medium replaced), 41.5 ± 7.2.

`CCCC(=O)OC(C)C(N)C(=O)O` (stereo not drawn) [Thr-n-butyric acid]: the Mean fluorescence intensity came out at 126.4 ± 4.6 in the assay with Epithelial cells (0 Hours after medium replaced); 121.4 ± 4.6 in the assay on Epithelial cells (2 Hours after medium replaced); 115.0 ± 0.4 in the assay with Epithelial cells (4 Hours after medium replaced); 60.41 ± 3.4 with Epithelial cells (8 Hours after medium replaced); 34.91 ± 5.6 in the assay on Epithelial cells (12 Hours after medium replaced); 30.67 ± 4.5 in the assay with Epithelial cells (24 Hours after medium replaced).

`CC(OC(=O)CCCCCCC(=O)O)C(N)C(=O)O` (stereo not drawn) [Thr-octanedioic acid]: the Mean fluorescence intensity came out at 125.3 ± 4.2 in the assay with Epithelial cells (0 Hours after medium replaced); 122.4 ± 7.5 in the assay on Epithelial cells (2 Hours after medium replaced); 115.4 ± 6.8 with Epithelial cells (4 Hours after medium replaced); 55.4 ± 7.8 in the assay with Epithelial cells (8 Hours after medium replaced); 45.0 ± 6.3 with Epithelial cells (12 Hours after medium replaced); 35.3 ± 5.9 with Epithelial cells (24 Hours after medium replaced).

On to `CCCCCCCCCCCCCCCC(=O)OC(C)C(N)C(=O)O` (stereo not drawn) [Thr-palmitic acid], for which the Mean fluorescence intensity in the assay with Epithelial cells (0 Hours after medium replaced) is 123.3 ± 6.6; with Epithelial cells (2 Hours after medium replaced), 124.4 ± 7.5; in the assay with Epithelial cells (4 Hours after medium replaced), 119.5 ± 4.1; in the assay on Epithelial cells (8 Hours after medium replaced) it was 69.2 ± 7.5; in the assay with Epithelial cells (12 Hours after medium replaced), 45.3 ± 5.8; in the assay on Epithelial cells (24 Hours after medium replaced) it was 42.5 ± 5.7.

As to `CCCCCCCCCCCCC(=O)OC(C)C(N)C(=O)O` (stereo not drawn) [Thr-tridecaneoic acid], the Mean fluorescence intensity was 106.5 ± 6.4 in the assay with Epithelial cells (0 Hours after medium replaced); 104.3 ± 7.8 in the assay on Epithelial cells (2 Hours after medium replaced); 96.6 ± 2.6 in the assay with Epithelial cells (4 Hours after medium replaced); 53.5 ± 2.6 in the assay with Epithelial cells (8 Hours after medium replaced); 42.5 ± 4.2 with Epithelial cells (12 Hours after medium replaced); 39.0 ± 4.3 in the assay on Epithelial cells (24 Hours after medium replaced).

Consider `CCCCCCCCCCC(=O)OC(C)C(N)C(=O)O` (stereo not drawn) [Thr-undecanoic acid], for which the Mean fluorescence intensity in the assay on Epithelial cells (0 Hours after medium replaced) came out at 129.5 ± 7.6; in the assay on Epithelial cells (2 Hours after medium replaced) it was 123.5 ± 3.5; in the assay on Epithelial cells (4 Hours after medium replaced), 118.7 ± 5.7; with Epithelial cells (8 Hours after medium replaced) it was 43.6 ± 9.3; in the assay on Epithelial cells (12 Hours after medium replaced), 35.3 ± 4.0; with Epithelial cells (24 Hours after medium replaced), 24.6 ± 3.8.

As to `CC/C=C\C/C=C\C/C=C\C/C=C\C/C=C\C/C=C\CCC(=O)OCC(O)C1OC(=O)C(O)=C1O` (stereo not drawn) [Vc-DHA], the Mean fluorescence intensity in the assay with Epithelial cells (0 Hours after medium replaced) is listed as 126.3 ± 7.4; with Epithelial cells (2 Hours after medium replaced) it was 115.4 ± 5.2; with Epithelial cells (4 Hours after medium replaced) it was 109.8 ± 4.9; in the assay with Epithelial cells (8 Hours after medium replaced), 52.0 ± 6.1; in the assay on Epithelial cells (12 Hours after medium replaced), 42.0 ± 3.4; in the assay with Epithelial cells (24 Hours after medium replaced) it was 37.9 ± 4.6.

As to `CCCCCCCCC(=O)OCC(O)C1OC(=O)C(O)=C1O` (stereo not drawn) [Vc-nonanoic acid], the Mean fluorescence intensity was determined as 129.5 ± 6.7 with Epithelial cells (0 Hours after medium replaced); 115.6 ± 6.8 in the assay with Epithelial cells (2 Hours after medium replaced); 93.7 ± 4.2 with Epithelial cells (4 Hours after medium replaced); 46.3 ± 5.7 in the assay with Epithelial cells (8 Hours after medium replaced); 36.4 ± 5.6 with Epithelial cells (12 Hours after medium replaced); 33.0 ± 7.0 in the assay with Epithelial cells (24 Hours after medium replaced).

Turning to `CCCCCCCCCCCCCC(=O)OCC(O)C1OC(=O)C(O)=C1O` (stereo not drawn) [Vc-tetradecanoic acid], the Mean fluorescence intensity in the assay with Epithelial cells (0 Hours after medium replaced) was 115.4 ± 4.6; in the assay with Epithelial cells (2 Hours after medium replaced) it was 100.2 ± 3.7; in the assay on Epithelial cells (4 Hours after medium replaced), 87.2 ± 4.6; in the assay with Epithelial cells (8 Hours after medium replaced), 41.2 ± 9.4; in the assay on Epithelial cells (12 Hours after medium replaced), 33.6 ± 5.2; in the assay on Epithelial cells (24 Hours after medium replaced), 27.5 ± 7.3.

As for `O=C(O)CCCCCCCCCC(=O)OCC(O)C1OC(=O)C(O)=C1O` (stereo not drawn) [Vc-undecanedioic acid], the Mean fluorescence intensity stood at 124.4 ± 4.5 with Epithelial cells (0 Hours after medium replaced); 116.4 ± 0.7 in the assay with Epithelial cells (2 Hours after medium replaced); 112.1 ± 6.3 in the assay on Epithelial cells (4 Hours after medium replaced); 65.3 ± 3.6 in the assay on Epithelial cells (8 Hours after medium replaced); 41.3 ± 9.3 with Epithelial cells (12 Hours after medium replaced); 35.4 ± 1.6 with Epithelial cells (24 Hours after medium replaced).

“Uridine diphosphate glucose-dodecanoic acid [UDPGA-C12]”: the “Inhibition rate (%)” value in assay [1] (0.002 µM) is recorded as 56.54 ± 3.94%; in assay [1] (0.005 µM), 79.66 ± 3.69%; in assay [1] (0.01 µM), 91.38 ± 3.36%; in assay [1] (0.05 µM) it was 81.33 ± 1.25%; in assay [1] (0.1 µM) it was 87.47 ± 8.23%; in assay [1] (1 µM) it was -92.93 ± 0.58%. The “Inhibition rate (%)” value came to 73.16 ± 0.59% in assay [1] (10 µM), 67.37 ± 0.54% in assay [1] (50 µM) and 53.98 ± 0.78% in assay [1] (100 µM).

As to “Uridine diphosphate glucose-oleic acid [UDPGA-OA]”, the “Inhibition rate (%)” value is listed as 44.54 ± 1.23% in assay [1] (0.002 µM); 50.06 ± 1.05% in assay [1] (0.005 µM); 54.94 ± 1.84% in assay [1] (0.01 µM); 67.33 ± 1.00% in assay [1] (0.05 µM); 84.96 ± 4.55% in assay [1] (0.1 µM); -82.33 ± 0.53% in assay [1] (1 µM). Moreover, the figures for the “Inhibition rate (%)” value in assay [1] (10 µM), in assay [1] (50 µM) and in assay [1] (100 µM) were -54.00 ± 0.23%, 73.06 ± 0.26% and 83.61 ± 0.88%, respectively.
